Results taken from PubChem BioAssay AID1963429 (Molecular Pharmacology Branch, DTP, NCI, 2024).
Values joined by “and” are separate entries in the source; they are usually repeats but may differ in a detail not shown here. Equal entries are not always repeated.

System: 126254-015-R-J1-PDC complex spheroid growth, % test/control
Experiment: Anticancer human tumor 126254-015-R-J1-PDC patient-derived soft tissue sarcoma cell line growth inhibition [Asc]
Conditions: for viability, T/C: stronger effect = lower value; active = viability on the fitted dose curve at most 10% of control; inactive = the rest
In short: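 Spheroid model: tumor line + HUVEC + hMSC. Single agents and combinations; top conc. at/near clinical Cmax (10 microM if undetermined), half-log dilutions. DMSO stocks at 800-fold test concentration.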

[1] = curve of first compound, second compound 0.01 µM
[2] = curve of first compound, second compound 0.0316 µM
[3] = curve of first compound, second compound 0.1 µM
[4] = curve of first compound, second compound 0.316 µM
[5] = curve of first compound, second compound 1 µM
[6] = second compound 0.01 µM, first compound 0.00316 µM
[7] = second compound 0.01 µM, first compound 0.01 µM
[8] = second compound 0.01 µM, first compound 0.0316 µM
[9] = second compound 0.01 µM, first compound 0.1 µM
[10] = second compound 0.01 µM, first compound 0.316 µM
[11] = second compound 0.01 µM, first compound 1 µM
[12] = second compound 0.0316 µM, first compound 0.00316 µM
[13] = second compound 0.0316 µM, first compound 0.01 µM
[14] = second compound 0.0316 µM, first compound 0.0316 µM
[15] = second compound 0.0316 µM, first compound 0.1 µM
[16] = second compound 0.0316 µM, first compound 0.316 µM
[17] = second compound 0.0316 µM, first compound 1 µM
[18] = second compound 0.1 µM, first compound 0.00316 µM
[19] = second compound 0.1 µM, first compound 0.01 µM
[20] = second compound 0.1 µM, first compound 0.0316 µM
[21] = second compound 0.1 µM, first compound 0.1 µM
[22] = second compound 0.1 µM, first compound 0.316 µM
[23] = second compound 0.1 µM, first compound 1 µM
[24] = second compound 0.316 µM, first compound 0.00316 µM
[25] = second compound 0.316 µM, first compound 0.01 µM
[26] = second compound 0.316 µM, first compound 0.0316 µM
[27] = second compound 0.316 µM, first compound 0.1 µM
[28] = second compound 0.316 µM, first compound 0.316 µM
[29] = second compound 0.316 µM, first compound 1 µM
[30] = second compound 1 µM, first compound 0.00316 µM
[31] = second compound 1 µM, first compound 0.01 µM
[32] = second compound 1 µM, first compound 0.0316 µM
[33] = second compound 1 µM, first compound 0.1 µM
[34] = second compound 1 µM, first compound 0.316 µM
[35] = second compound 1 µM, first compound 1 µM
[36] = second compound 0.01 µM, first compound 3.16 µM
[37] = second compound 0.01 µM, first compound 10 µM
[38] = second compound 0.0316 µM, first compound 3.16 µM
[39] = second compound 0.0316 µM, first compound 10 µM
[40] = second compound 0.1 µM, first compound 3.16 µM
[41] = second compound 0.1 µM, first compound 10 µM
[42] = second compound 0.316 µM, first compound 3.16 µM
[43] = second compound 0.316 µM, first compound 10 µM
[44] = second compound 1 µM, first compound 3.16 µM
[45] = second compound 1 µM, first compound 10 µM
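Note: spheroids exposed to compound for seven days.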
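Throughout, for viability, T/C: 100% = DMSO vehicle control wells.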

CCN1CCN(Cc2ccc(Nc3ncc(F)c(-c4cc(F)c5nc(C)n(C(C)C)c5c4)n3)nc2)CC1 + CNC(C)C(=O)NC1CN(S(=O)(=O)c2cccc(S(=O)(=O)N3CCC4CCC(C(=O)NC(c5ccccc5)c5ccccc5)N4C(=O)C(NC(=O)C(C)NC)C3)c2)CCC2CCC(C(=O)NC(c3ccccc3)c3ccccc3)N2C1=O
> 1 µM: IC50 [1] | IC50 [2] | IC50 [3] | IC50 [4] | IC50 [5]
inactive: viability, T/C [6] 94.4% | viability, T/C [7] 96.4% | viability, T/C [8] 91.5% | viability, T/C [9] 82.5% | viability, T/C [10] 97% | viability, T/C [11] 91.6% | viability, T/C [12] 71% | viability, T/C [13] 74.4% | viability, T/C [14] 77.8% | viability, T/C [15] 80.1% | viability, T/C [16] 81.7% | viability, T/C [17] 77.6% | viability, T/C [18] 61.4% | viability, T/C [19] 68.7% | viability, T/C [20] 62.9% | viability, T/C [21] 69% | viability, T/C [22] 75.9% | viability, T/C [23] 79.6% | viability, T/C [24] 57.8% | viability, T/C [25] 62.5% | viability, T/C [26] 62.4% | viability, T/C [27] 67.4% | viability, T/C [28] 65.6% | viability, T/C [29] 71.8% | viability, T/C [30] 59.2% | viability, T/C [31] 61.5% | viability, T/C [32] 65% | viability, T/C [33] 52.6% | viability, T/C [34] 57.2% | viability, T/C [35] 60.9%

COc1c(OCCCN2CCOCC2)ccc2c3n(c(=NC(=O)c4cnc(N)nc4)nc12)CCN3 + CNC(C)C(=O)NC1CN(S(=O)(=O)c2cccc(S(=O)(=O)N3CCC4CCC(C(=O)NC(c5ccccc5)c5ccccc5)N4C(=O)C(NC(=O)C(C)NC)C3)c2)CCC2CCC(C(=O)NC(c3ccccc3)c3ccccc3)N2C1=O
0.0533 µM: IC50 [2]
0.0158 µM: IC50 [5]
0.0199 µM: IC50 [4]
active: viability, T/C [29] 9.08% | viability, T/C [35] 9.01%
0.052 µM: IC50 [1]
0.0323 µM: IC50 [3]
inactive: viability, T/C [6] 84.8% | viability, T/C [7] 82.4% | viability, T/C [8] 57.8% | viability, T/C [9] 37.3% | viability, T/C [10] 20.1% | viability, T/C [11] 12.5% | viability, T/C [12] 74.8% | viability, T/C [13] 73.2% | viability, T/C [14] 60.7% | viability, T/C [15] 36.6% | viability, T/C [16] 19.3% | viability, T/C [17] 11.4% | viability, T/C [18] 66.1% | viability, T/C [19] 63.5% | viability, T/C [20] 47.9% | viability, T/C [21] 36% | viability, T/C [22] 17.5% | viability, T/C [23] 11.2% | viability, T/C [24] 60.8% | viability, T/C [25] 54.6% | viability, T/C [26] 47.8% | viability, T/C [27] 29.1% | viability, T/C [28] 18.2% | viability, T/C [30] 53.7% | viability, T/C [31] 56.6% | viability, T/C [32] 43.6% | viability, T/C [33] 28.3% | viability, T/C [34] 15.6%

O=C(c1ccc(F)c(F)c1Nc1ccc(I)cc1F)N1CC(O)([C@@H]2CCCCN2)C1
0.699 µM and 0.755 µM and > 1 µM: IC50 (curve of compound)
inactive: viability, T/C (compound 0.00316 µM) 103% and 94.5% and 96.1% | viability, T/C (compound 0.01 µM) 109% (2×) and 105% | viability, T/C (compound 0.0316 µM) 102% (2×) and 93.1% | viability, T/C (compound 0.1 µM) 91.6% and 90.3% and 101% | viability, T/C (compound 0.316 µM) 66.5% and 70.8% and 78.6% | viability, T/C (compound 1 µM) 42.6% and 42.9% and 55.1%

C=CC(=O)N1CCN(c2nc(=O)n(-c3c(C)ccnc3C(C)C)c3nc(-c4c(O)cccc4F)c(F)cc23)C(C)C1 (configuration not stated) + CNC(C)C(=O)NC1CN(S(=O)(=O)c2cccc(S(=O)(=O)N3CCC4CCC(C(=O)NC(c5ccccc5)c5ccccc5)N4C(=O)C(NC(=O)C(C)NC)C3)c2)CCC2CCC(C(=O)NC(c3ccccc3)c3ccccc3)N2C1=O
inactive: viability, T/C [8] 94.4% | viability, T/C [9] 99.5% | viability, T/C [10] 94.5% | viability, T/C [11] 110% | viability, T/C [36] 101% | viability, T/C [37] 82.3% | viability, T/C [14] 85.1% | viability, T/C [15] 84.8% | viability, T/C [16] 86.7% | viability, T/C [17] 84.2% | viability, T/C [38] 87.1% | viability, T/C [39] 75.2% | viability, T/C [20] 70.7% | viability, T/C [21] 78% | viability, T/C [22] 81.5% | viability, T/C [23] 75.7% | viability, T/C [40] 82.7% | viability, T/C [41] 67.3% | viability, T/C [26] 69.2% | viability, T/C [27] 77.2% | viability, T/C [28] 71.5% | viability, T/C [29] 70.9% | viability, T/C [42] 73.9% | viability, T/C [43] 67.7% | viability, T/C [32] 62.8% | viability, T/C [33] 72.4% | viability, T/C [34] 67.5% | viability, T/C [35] 72% | viability, T/C [44] 70.3% | viability, T/C [45] 65.5%
> 10 µM: IC50 [1] | IC50 [2] | IC50 [3] | IC50 [4] | IC50 [5]

C=C(F)C(=O)N1CCN(c2nc(OCC3CCCN3C)nc3c2CCN(c2cccc4cccc(Cl)c24)C3)CC1CC#N (configuration not stated) + CNC(C)C(=O)NC1CN(S(=O)(=O)c2cccc(S(=O)(=O)N3CCC4CCC(C(=O)NC(c5ccccc5)c5ccccc5)N4C(=O)C(NC(=O)C(C)NC)C3)c2)CCC2CCC(C(=O)NC(c3ccccc3)c3ccccc3)N2C1=O
inactive: viability, T/C [8] 80% | viability, T/C [9] 89.3% | viability, T/C [10] 80.1% | viability, T/C [11] 74.8% | viability, T/C [36] 44.3% | viability, T/C [14] 71.4% | viability, T/C [15] 71% | viability, T/C [16] 71.4% | viability, T/C [17] 63.9% | viability, T/C [38] 43.5% | viability, T/C [20] 61% | viability, T/C [21] 67.3% | viability, T/C [22] 64.6% | viability, T/C [23] 53.2% | viability, T/C [40] 35.2% | viability, T/C [26] 65.4% | viability, T/C [27] 66.1% | viability, T/C [28] 64% | viability, T/C [29] 45% | viability, T/C [42] 40.7% | viability, T/C [32] 58.7% | viability, T/C [33] 59.2% | viability, T/C [34] 57.5% | viability, T/C [35] 40.4% | viability, T/C [44] 27.4%
0.505 µM: IC50 [5]
active: viability, T/C [37] 0.18% | viability, T/C [39] 0.14% | viability, T/C [41] 0.14% | viability, T/C [43] 0.15% | viability, T/C [45] 0.2%
2.2 µM: IC50 [2]
1.34 µM: IC50 [3]
1.21 µM: IC50 [4]
2.55 µM: IC50 [1]
